The text below walks through data of BindingDB's records for doi:10.1002/cbic.200900750 (University of Toronto, 2010).

The target in this assay is T1, Alpha-mannosidase 2 (Drosophila melanogaster, UniProt Q24451).
T1 sequence (Q24451 whole entry): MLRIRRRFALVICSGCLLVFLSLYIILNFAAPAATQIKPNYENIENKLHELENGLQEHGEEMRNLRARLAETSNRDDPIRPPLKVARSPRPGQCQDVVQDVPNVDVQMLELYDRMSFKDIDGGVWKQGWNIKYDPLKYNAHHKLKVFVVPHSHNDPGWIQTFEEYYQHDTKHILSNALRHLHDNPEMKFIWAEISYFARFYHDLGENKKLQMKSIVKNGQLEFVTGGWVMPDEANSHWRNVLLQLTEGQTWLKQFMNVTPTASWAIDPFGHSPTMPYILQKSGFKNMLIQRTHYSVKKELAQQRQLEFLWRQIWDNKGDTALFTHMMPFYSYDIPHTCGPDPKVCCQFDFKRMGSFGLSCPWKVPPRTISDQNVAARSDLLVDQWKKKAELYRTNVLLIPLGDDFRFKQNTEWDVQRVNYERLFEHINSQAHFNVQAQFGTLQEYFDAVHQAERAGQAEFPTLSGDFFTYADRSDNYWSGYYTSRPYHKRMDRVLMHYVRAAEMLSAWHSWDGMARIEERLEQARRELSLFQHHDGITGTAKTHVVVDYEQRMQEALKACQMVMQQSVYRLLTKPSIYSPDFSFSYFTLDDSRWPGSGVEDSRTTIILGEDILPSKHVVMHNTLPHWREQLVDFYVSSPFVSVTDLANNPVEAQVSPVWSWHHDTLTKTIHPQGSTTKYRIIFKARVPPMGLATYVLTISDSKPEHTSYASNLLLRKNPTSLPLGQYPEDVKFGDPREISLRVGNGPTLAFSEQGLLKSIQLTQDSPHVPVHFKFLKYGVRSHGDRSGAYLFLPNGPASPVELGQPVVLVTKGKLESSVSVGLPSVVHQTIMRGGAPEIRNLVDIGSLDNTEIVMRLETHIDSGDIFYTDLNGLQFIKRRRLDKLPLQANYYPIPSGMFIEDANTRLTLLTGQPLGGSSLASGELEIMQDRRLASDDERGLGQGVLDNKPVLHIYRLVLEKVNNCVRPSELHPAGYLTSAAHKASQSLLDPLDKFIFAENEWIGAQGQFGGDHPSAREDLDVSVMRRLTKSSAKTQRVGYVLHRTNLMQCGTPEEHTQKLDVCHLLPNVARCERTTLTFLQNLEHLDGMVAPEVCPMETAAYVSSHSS
In words: Inhibition Assay. To be noted: pH 5.75; 25 °C.

Usually IC50 stands for the concentration that inhibits the measured activity by half. As usually defined, the Ki is a measure of affinity in units of concentration, obtained from inhibition or displacement. Consider `O[C@H]1[C@H]2[C@H](O)CCCN2C[C@H]1O` [(-)-swainsonine], for which inhibition was half-maximal at 37 nM (IC50) and the affinity corresponds to a Ki of 3 nM. On to `O=C(C[C@H]1CC[C@@H](O)C2[C@H](O)[C@H](O)CN21)c1ccccc1` (stereo not given in full) [Swainsonine derivative, 2], for which the IC50 came out at 30 nM. `Cc1ccc(C(=O)C[C@H]2CC[C@@H](O)C3[C@H](O)[C@H](O)CN32)cc1` (stereo not given in full) [Swainsonine derivative, 3] returned an IC50 of 29 nM. The same measure, in the same setting: for `CC(C)(C)c1ccc(C(=O)C[C@H]2CC[C@@H](O)C3[C@H](O)[C@H](O)CN32)cc1` (stereo not given in full) [Swainsonine derivative, 4] the value was 29 nM.
